Structures are written as SMILES. Marks after values point to notes of the source that are not given here.

Experiment [1] deals with pylorus ligated albino rats. Kind of experiment: Anti-ulcerogenic effect in pylorus ligated rats (ulcer index, gastric juice). It is filed as in vivo. From the text: Mixture of DBPs (1:1, 1 and 2, Scheme-II), on'the other hand, increased the contents of individual and the total carbohydrates and also the total carbohydrate/protein ratio in the gastric juice. The ratio of the total carbohydrate/protein was taken as the index of the mucin activity.
Another essential criterion of determining the status of mucosal resistance/barrier is the state of mucus secretion. DBPs increase not only the mucosal cellular mucus, but also secrete more dissolved mucus in the gastric juice as evidenced by their effects on gastric juice carbohydrates and on the increased carbohydrate/protein ratio.

Experiment [2] concerns CS-induced alteration of adrenal gland ascorbic acid and corticosterone concentrations and plasma corticosterone level. Description: Chronic stress induced alteration of adrenal ascorbic acid, adrenal corticosterone and plasma corticosterone. It counts as in vivo, albino rats. The procedure:
The study is also relevant in view of the projected links of EPA and DHA to mental development in children which is severely retarded by chronic stress. Rats were randomly assigned to control or stress groups. Those assigned to the stress groups were subjected to 1 hour foot-shock, through a grid floor, every day for 14 days. […] Control animals received only the vehicle in either unstressed or the stressed rats for the same period in a volume of 2 ml/Kg, p.o. […] CS caused marked depletion of adrenal gland ascorbic acid and corticosterone concentrations with concomitant increase in plasma corticosterone levels. […] They had no per se effect on the indices of stress investigated (Table 3).

The subject of the next experiment is active learning in rats. Description: Active learning (learning acquisition), number of trials to reach criterion. It counts as in vivo, rat. The following applies: p.o. once daily 45 min before trial for 4 days, mean ± SEM. The text has this:
In the learning acquisition paradigm, in the control group, the number of shocked and unshocked trials required to reach the criterion of 10 correct conditional responses, were 14.33 and 43.70, respectively.

Experiment [3] concerns CS-induced gastric ulceration in albino rats. Description: Chronic stress (foot-shock) induced gastric ulceration. It is filed as in vivo. The procedure:
A comparative study of DBPs (1, 2, Scheme-II; 1:1 mixture), EPA and DHA was carried out to determine their relative adaptogenic potency against chronic stress in albino rats. The study is also relevant in view of the projected links of EPA and DHA to mental development in children which is severely retarded by chronic stress.
Rats were randomly assigned to control or stress groups. Those assigned to the stress groups were subjected to 1 hour foot-shock, through a grid floor, every day for 14 days. The duration of each shock (2 mA) and the intervals between the shocks were randomly programmed between 3-5 seconds and 10-110 seconds, respectively, to make the stress unpredictable.
EPA (Aldrich), DHA (Sigma) and DBPs were separately suspended/dissolved in 0.3% carboxymethylcellulose (CMC) in distilled water and administered orally (p.o.) for 14 days, starting on day 1, 60 min. prior to electro-shock. Control animals received only the vehicle in either unstressed or the stressed rats for the same period in a volume of 2 ml/Kg, p.o. Estimations were conducted on day 14, one hour after the last stress procedure and two hours after the last test compound or vehicle was administered.
The three test compounds had, albeit in different extent, dose-related anti-ulcerogenic effect. The efficacy was in the order: DBPs>DHA>EPA (Table 2).

The test system of the next experiment is open-field test in rats. Kind of experiment: Open-field test (anxiogenic test model). It is filed as in vivo, rat. Details: Immobility: unit not given here. On the procedure: This was determined according to a previously described method (Bhattacharya et al. 1998).
MDMA (5 and 10 mg/Kg, i.p.) produced a dose-related decrease in the number of squares crossed and rears, with concomitant immobility and increased defecation; these effects are qualitatively similar to those induced by yohimbine (2 mg/Kg, i.p. in 0.9% saline as the vehicle). DBPs (1 and 2, 1:1 mixture 10 mg/Kg, p.o. day-1, for 7 days) were administered prior to MDMA or yohimbine administration, on the 7th day, 1 hour after the last DBPs administration (p.o.). Similar anti-anxiogenic effects were observed on pretreatment of MDMA, followed by DBPs.

[4] abbreviates: 5 mg/Kg p.o. for 14 days + chronic stress.
The mark [5] stands for this setting: 5 mg/Kg p.o., unstressed rats (per se effect).
The mark [6] stands for this setting: 10 mg/Kg p.o. for 14 days + chronic stress.
Where [7] appears, read: 10 mg/Kg p.o., unstressed rats (per se effect).
Setting [8] is: 10 mg/Kg p.o. for 7 days, prior to MDMA or yohimbine administration.

Take `CC(=O)Oc1ccccc1C(=O)O` [ASP, aspirin]: the “protein content in the gastric juice” value in experiment [1] (compared to the vehicle control) is “significant increase”. Besides, in experiment [1] (pylorus ligated rats), the “contents of DNA and protein in the gastric juice” value is given as “appreciable increase”; the “total carbohydrate/protein ratio in the gastric juice (index of mucin activity)” value is on record as “considerable decrease”.

On to `CC/C=C\C/C=C\C/C=C\C/C=C\C/C=C\C/C=C\CCC(=O)O` [DHA, docosahexaenoic acid], for which, in experiment [2] (setting [4]), the Adrenal ascorbic acid stood at 140.7 ± 20.5 μg/100 mg, the Adrenal corticosterone came out at 2.5 ± 1.0 μg/100 mg and the Plasma corticosterone is reported as 22.5 ± 3.5^b μg/dL. For the same compound, in experiment [2] (setting [5]), the Adrenal ascorbic acid was found to be 309.4 ± 30.4 μg/100 mg, the Adrenal corticosterone turned out to be 4.8 ± 1.2 μg/100 mg and the Plasma corticosterone is 15.0 ± 0.9 µg/dL. Also, in experiment [2] (setting [6]), the Adrenal ascorbic acid is listed as 148.0 ± 16.7^b μg/100 mg, the Adrenal corticosterone is given as 2.8 ± 1.0^b μg/100 mg and the Plasma corticosterone was 17.9 ± 0.9^b μg/dL. In experiment [2] (setting [7]), this compound came in with an Adrenal ascorbic acid of 308.9 ± 27.4 μg/100 mg, an Adrenal corticosterone of 5.5 ± 1.0 μg/100 mg and a Plasma corticosterone of 14.7 ± 1.0 µg/dL. Besides, in the experiment with active learning in rats (dose 2.5 mg/ml), the “Number of trials to reach criterion, Shocked trials” value was determined as 12.55 ± 2.03 and the “Number of trials to reach criterion, Unshocked trials” value is reported as 39.33 ± 2.04. For the same compound, the “Number of trials to reach criterion, Shocked trials” value in the experiment on active learning in rats (dose 5.0 mg/ml) came out at 12.78 ± 1.83. In experiment [3] (setting [4]), the No. of ulcers is given as 15.8 ± 4.0, the Severity of ulcers stood at 28.1 ± 5.9 and the “Ulcer incidence (%)” value is recorded as 70%. In experiment [3] (setting [6]), the No. of ulcers came out at 14.7 ± 3.8, the Severity of ulcers was 25.0 ± 5.2 and the “Ulcer incidence (%)” value was 60%. In addition, in the experiment on open-field test in rats (setting [8]), the Faecal pellets turned out to be 5.7 ± 4.1, the Immobility worked out at 59.9 ± 7.2, the Rears turned out to be 14.0 ± 5.5 and the Squares crossed came to 122.1 ± 5.5.

For `CNC(C)Cc1ccc2c(c1)OCO2` (stereo not shown) [MDMA, Methylenedioxymethylamphetamine], in the experiment with open-field test in rats (5 mg/Kg, i.p.), the Faecal pellets amounted to 6.7 ± 0.5, the Immobility is 69.3 ± 6.1, the Rears was 14.3 ± 4.2 and the Squares crossed was 111.2 ± 8.0. Besides, in the experiment on open-field test in rats (10 mg/Kg, i.p.), the Faecal pellets is recorded as 8.0 ± 2.2, the Immobility amounted to 80.1 ± 7.0, the Rears is listed as 11.2 ± 3.9 and the Squares crossed turned out to be 74.7 ± 5.5.

As to `COC(=O)[C@@H]1[C@H]2C[C@H]3c4[nH]c5ccccc5c4CCN3C[C@@H]2CC[C@@H]1O` [Yohimbine, yohimbine], in the experiment on open-field test in rats (2 mg/Kg, i.p. in 0.9% saline), the Faecal pellets turned out to be 7.5 ± 1.2, the Immobility is 70.2 ± 4.9, the Rears came out at 12.8 ± 4.4 and the Squares crossed came to 90.8 ± 7.4.

For the origin of these results see US20050282781A1, “Compositions of stable bioactive metabolites of docosahexaenoic (DHA) and eicosapentaenoic (EPA) acids” (priority 2004, published 2005).
